SMILES strings stand for the structures.

In the test the target is T1, F508del (Homo sapiens, UniProt P13569, DEL508-508).
T1 construct: expressed in transfected cells
T1 sequence (P13569 with tags, fused parts or gaps DEL508-508): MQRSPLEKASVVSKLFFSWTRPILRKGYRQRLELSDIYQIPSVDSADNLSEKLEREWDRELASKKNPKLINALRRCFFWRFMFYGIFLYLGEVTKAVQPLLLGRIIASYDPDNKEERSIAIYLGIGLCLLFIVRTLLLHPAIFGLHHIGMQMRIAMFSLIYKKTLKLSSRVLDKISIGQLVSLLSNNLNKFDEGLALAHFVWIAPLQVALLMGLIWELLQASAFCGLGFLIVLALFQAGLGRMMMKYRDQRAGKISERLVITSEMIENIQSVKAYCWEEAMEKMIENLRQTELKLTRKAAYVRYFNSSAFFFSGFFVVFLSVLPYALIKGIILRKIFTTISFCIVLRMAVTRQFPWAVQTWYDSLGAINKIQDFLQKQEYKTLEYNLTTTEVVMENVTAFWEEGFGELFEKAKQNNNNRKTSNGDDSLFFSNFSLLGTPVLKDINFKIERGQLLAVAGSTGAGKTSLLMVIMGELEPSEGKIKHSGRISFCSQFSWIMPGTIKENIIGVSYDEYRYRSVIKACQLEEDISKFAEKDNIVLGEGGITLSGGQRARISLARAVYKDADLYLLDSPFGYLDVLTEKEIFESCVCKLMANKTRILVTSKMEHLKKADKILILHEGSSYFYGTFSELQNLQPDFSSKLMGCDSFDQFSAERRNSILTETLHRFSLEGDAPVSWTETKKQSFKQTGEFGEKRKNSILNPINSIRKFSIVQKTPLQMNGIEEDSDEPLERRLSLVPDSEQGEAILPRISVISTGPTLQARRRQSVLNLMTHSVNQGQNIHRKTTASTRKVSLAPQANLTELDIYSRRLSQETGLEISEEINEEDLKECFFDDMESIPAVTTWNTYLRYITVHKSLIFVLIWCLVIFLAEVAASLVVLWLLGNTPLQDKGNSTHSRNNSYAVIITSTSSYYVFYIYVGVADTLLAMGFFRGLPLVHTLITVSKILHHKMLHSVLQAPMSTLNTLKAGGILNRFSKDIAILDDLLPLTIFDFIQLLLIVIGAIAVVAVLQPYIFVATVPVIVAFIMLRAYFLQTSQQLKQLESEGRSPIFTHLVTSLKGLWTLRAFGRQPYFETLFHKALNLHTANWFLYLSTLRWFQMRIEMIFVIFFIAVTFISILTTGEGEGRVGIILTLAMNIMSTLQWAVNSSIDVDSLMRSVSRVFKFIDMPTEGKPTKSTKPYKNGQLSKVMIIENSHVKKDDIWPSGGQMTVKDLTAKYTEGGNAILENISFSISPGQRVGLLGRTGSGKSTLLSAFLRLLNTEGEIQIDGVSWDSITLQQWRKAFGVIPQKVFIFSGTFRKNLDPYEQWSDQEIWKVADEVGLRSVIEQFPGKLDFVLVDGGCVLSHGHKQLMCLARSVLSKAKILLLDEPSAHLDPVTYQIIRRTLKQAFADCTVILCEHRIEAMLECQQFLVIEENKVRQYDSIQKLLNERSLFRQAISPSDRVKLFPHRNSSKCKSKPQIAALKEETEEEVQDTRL
The experiment in a line: Protocol 1: membrane potential optical assay (FLIPR III, voltage sensing dye), identification of potentiator compounds. It is filed as cell-based. As to conditions: Table 3, compounds of Table 1. The procedure, abridged: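 NIH3T3 F508del cells, 27° C × 24 hrs; compound/DMSO pretreat → redistribution dye load → single forskolin addition with Cl⁻ gradient (gluconate-substituted bath, HEPES pH 7.4). FLIPR III membrane-potential fluorescence read.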
Take `Cc1cc(C)c(Oc2nc(C3CC3)ccc2C(=O)NS(=O)(=O)c2cccc(N)n2)c(C)c1` [Compound 1050, N-[(6-amino-2-pyridyl)sulfonyl]-6-cyclopropyl-2-(2,4,6-trimethylphenoxy)pyridine-3-carboxamide]: the EC30 entry is “++ (“++” means between 3 uM and 10 uM)”.

As to `CCOc1cccc2c1CN(Cc1c(C)cc(C)cc1C)C2(C)C(=O)NS(=O)(=O)c1ccccn1` (stereo not shown) [Compound 1474, 4-ethoxy-1-methyl-N-(2-pyridylsulfonyl)-2-[(2,4,6-trimethylphenyl)methyl]isoindoline-1-carboxamide], the EC30 entry is on record as “+++ (“+++” means <3 uM)”. Under `CC(C)Oc1cc(-c2ccc(C(=O)NS(=O)(=O)c3ccc[nH]c3=O)c(N3[C@H](C)CC[C@@H]3C)n2)ccc1Cl` [Compound 1001, 6-(4-chloro-3-isopropoxy-phenyl)-2-[(2S,5R)-2,5-dimethylpyrrolidin-1-yl]-N-[(2-oxo-1H-pyridin-3-yl)sulfonyl]pyridine-3-carboxamide] stands “++ (“++” means between 3 uM and 10 uM)”; under `CCOc1cccc2c1CN(Cc1cc(F)cc(OCC(C)C)c1)C2(C)C(=O)NS(=O)(=O)c1cccc(N)n1` (stereo not shown) [Compound 1681, N-[(6-amino-2-pyridyl)sulfonyl]-4-ethoxy-2-[(3-fluoro-5-isobutoxy-phenyl)methyl]-1-methyl-isoindoline-1-carboxamide], “+++ (“+++” means <3 uM)”.

Take `CC1CN(c2ncccc2C(=O)NS(=O)(=O)c2cccc(Oc3ccc(C(C)C)cc3)n2)C(C)(C)C1` (stereo not shown) [Compound 1902, N—[[6-(4-isopropylphenoxy)-2-pyridyl]sulfonyl]-2-(2,2,4-trimethylpyrrolidin-1-yl)pyridine-3-carboxamide]: the EC30 result is recorded as “+++ (“+++” means <3 uM)”. As for `CCOCCOc1ccn(-c2ccc(C(=O)NS(=O)(=O)c3cccnc3N)c(N3C[C@@H](C)CC3(C)C)n2)n1` [Compound 1742, N-[(2-amino-3-pyridyl)sulfonyl]-6-[3-(2-ethoxyethoxy)pyrazol-1-yl]-2-[(4S)-2,2,4-trimethylpyrrolidin-1-yl]pyridine-3-carboxamide], the entry is “+++ (“+++” means <3 uM)”; as for `Cc1ccc(Oc2nc3c(cc2C(=O)NS(=O)(=O)c2cc[nH]n2)CCCC3(C)C)c(C)c1` [Compound 1246, 2-(2,4-dimethylphenoxy)-8,8-dimethyl-N-(1H-pyrazol-3-ylsulfonyl)-6,7-dihydro-5H-quinoline-3-carboxamide], “+++ (“+++” means <3 uM)”; as for `CCOc1cccc2c1CN(Cc1c(C)cc(C)cc1C)C2(C)C(=O)NS(=O)(=O)c1cscn1` (stereo not shown) [Compound 1542, 4-ethoxy-1-methyl-N-thiazol-4-ylsulfonyl-2-[(2,4,6-trimethylphenyl)methyl]isoindoline-1-carboxamide], “+++ (“+++” means <3 uM)”.

Consider `CC1CN(c2nc(C(C)(C)C)c(C3=CCCCO3)cc2C(=O)NS(=O)(=O)c2cccc(N)n2)C(C)(C)C1` (stereo not shown) [Compound 1485, N-[(6-amino-2-pyridyl)sulfonyl]-6-tert-butyl-5-(3,4-dihydro-2H-pyran-6-yl)-2-(2,2,4-trimethylpyrrolidin-1-yl)pyridine-3-carboxamide], for which the EC30 entry is “+++ (“+++” means <3 uM)”. As for `Cc1cc(C)c(Oc2nc(-c3cc(F)cc(OC(C)C)c3)ccc2C(=O)NS(=O)(=O)c2nccnc2N)c(C)c1` [Compound 989, N-(3-aminopyrazin-2-yl)sulfonyl-6-(3-fluoro-5-isopropoxy-phenyl)-2-(2,4,6-trimethylphenoxy)pyridine-3-carboxamide], the entry is “+++ (“+++” means <3 uM)”; as for `CC(C)Oc1ccn(-c2ccc(C(=O)NS(=O)(=O)c3cccnc3N)c(N3C[C@@H](C)CC3(C)C)n2)n1` [Compound 1844, N-[(2-amino-3-pyridyl)sulfonyl]-6-(3-isopropoxypyrazol-1-yl)-2-[(4S)-2,2,4-trimethylpyrrolidin-1-yl]pyridine-3-carboxamide], “+++ (“+++” means <3 uM)”.

As for `CC(C)COc1cc(F)cc(-c2ccc(C(=O)NS(=O)(=O)c3cccc(N)n3)c(N3CCCC4CCCC43)n2)c1` (stereo not shown) [Compound 1313, 2-(2,3,4,4a,5,6,7,7a-octahydrocyclopenta[b]pyridin-1-yl)-N-[(6-amino-2-pyridyl)sulfonyl]-6-(3-fluoro-5-isobutoxy-phenyl)pyridine-3-carboxamide], the EC30 result is “+++ (“+++” means <3 uM)”. On to `CC1CN(c2nc(-c3cccc(OCC(C)(C)C)n3)ccc2C(=O)NS(=O)(=O)c2cccc(N)n2)C(C)(C)C1` (stereo not shown) [Compound 1062, N-[(6-amino-2-pyridyl)sulfonyl]-6-[6-(2,2-dimethylpropoxy)-2-pyridyl]-2-(2,2,4-trimethylpyrrolidin-1-yl)pyridine-3-carboxamide], for which the EC30 entry is reported as “+++ (“+++” means <3 uM)”.

Take `Cc1cc(C)c(Oc2ncc(-c3ccccc3C)cc2C(=O)NS(=O)(=O)c2cccc(N)n2)c(C)c1` [Compound 817, N-[(6-amino-2-pyridyl)sulfonyl]-5-(o-tolyl)-2-(2,4,6-trimethylphenoxy)pyridine-3-carboxamide]: the EC30 entry is reported as “+++ (“+++” means <3 uM)”. As for `CC(C)COc1cc(F)cc(-c2cnc(C(=O)NS(=O)(=O)c3cccc(N)n3)c(N3C[C@@H](C)CC3(C)C)n2)c1` [Compound 1526, NV [(6-amino-2-pyridyl)sulfonyl]-5-(3-fluoro-5-isobutoxy-phenyl)-3-[(4S)-2,2,4-trimethylpyrrolidin-1-yl]pyrazine-2-carboxamide], the entry is “+++ (“+++” means <3 uM)”; as for `COc1ccccc1Nc1cccc(S(=O)(=O)NC(=O)c2cccnc2N2CC(C)CC2(C)C)n1` (stereo not shown) [Compound 1959, N—[[6-(2-methoxyanilino)-2-pyridyl]sulfonyl]-2-(2,2,4-trimethylpyrrolidin-1-yl)pyridine-3-carboxamide], “+++ (“+++” means <3 uM)”; as for `C[C@@H]1CN(c2nc(-c3ccc(O)cc3)ccc2C(=O)NS(=O)(=O)c2cccnc2N)C(C)(C)C1` [Compound 1712, N-[(2-amino-3-pyridyl)sulfonyl]-6-(4-hydroxyphenyl)-2-[(4S)-2,2,4-trimethylpyrrolidin-1-yl]pyridine-3-carboxamide], “+++ (“+++” means <3 uM)”. As for `CC1CN(c2nc(C(C)(C)C)c(C3=CC4CCC(C3)N4C(=O)OC(C)(C)C)cc2C(=O)NS(=O)(=O)c2cccc(N)n2)C(C)(C)C1` (stereo not shown) [Compound 1388, tert-butyl 3-[5-[(6-amino-2-pyridyl)sulfonylcarbamoyl]-2-tert-butyl-6-(2,2,4-trimethylpyrrolidin-1-yl)-3-pyridyl]-8-azabicyclo[3.2.1]oct-3-ene-8-carboxylate], the entry is “+++ (“+++” means <3 uM)”; as for `COc1ncc(Cl)cc1-c1ccc(C(=O)NS(=O)(=O)c2cccc(N)n2)c(Oc2c(C)cc(C)cc2C)n1` [Compound 993, N-[(6-amino-2-pyridyl)sulfonyl]-6-(5-chloro-2-methoxy-3-pyridyl)-2-(2,4,6-trimethylphenoxy)pyridine-3-carboxamide], “+++ (“+++” means <3 uM)”. With `Cc1cc(C)c(Oc2nc(C(C)(C)C)ccc2C(=O)NS(=O)(=O)c2cnc(N)s2)c(C)c1` [Compound 1148, N-(2-aminothiazol-5-yl)sulfonyl-6-tert-butyl-2-(2,4,6-trimethylphenoxy)pyridine-3-carboxamide], the EC30 result is listed as “+++ (“+++” means <3 uM)”. Under `CC(C)COc1cc(F)cc(-c2ccc(C(=O)NS(=O)(=O)c3cccc(N)n3)c(N3CCC[C@H](C)C3)n2)c1` [Compound 1193, N-[(6-amino-2-pyridyl)sulfonyl]-6-(3-fluoro-5-isobutoxy-phenyl)-2-[(3S)-3-methyl-1-piperidyl]pyridine-3-carboxamide] stands “+++ (“+++” means <3 uM)”; under `Cc1cc(C)c(Cn2nc(C(C)(C)C)cc2C(=O)NS(=O)(=O)c2ccc(N)cc2)c(C)c1` [Compound 1653, N-(4-aminophenyl)sulfonyl-5-tert-butyl-2-[(2,4,6-trimethylphenyl)methyl]pyrazole-3-carboxamide], “+++ (“+++” means <3 uM)”; under `Cc1cc(C)c(Oc2nc(-c3ccc(CN)cc3)ccc2C(=O)NS(=O)(=O)c2cccc(N)n2)c(C)c1` [Compound 1228, 6-[4-(aminomethyl)phenyl]-N-[(6-amino-2-pyridyl)sulfonyl]-2-(2,4,6-trimethylphenoxy)pyridine-3-carboxamide], “++ (“++” means between 3 uM and 10 uM)”. Under `Cc1cc(C)c(Oc2nc(C3=CCCC3)ccc2C(=O)NS(=O)(=O)c2cccc(N)n2)c(C)c1` [Compound 1330, N-[(6-amino-2-pyridyl)sulfonyl]-6-(cyclopenten-1-yl)-2-(2,4,6-trimethylphenoxy)pyridine-3-carboxamide] stands “+++ (“+++” means <3 uM)”; under `CC(C)COc1cc(F)cc(-c2ccc(C(=O)NS(=O)(=O)c3cccc(N)n3)c(OC(C)C3CCCC3)n2)c1` (stereo not shown) [Compound 1374, N-[(6-amino-2-pyridyl)sulfonyl]-2-(1-cyclopentylethoxy)-6-(3-fluoro-5-isobutoxy-phenyl)pyridine-3-carboxamide], “+++ (“+++” means <3 uM)”; under `CC(=O)C1CC=C(c2cc(C(=O)NS(=O)(=O)c3cccc(N)n3)c(N3CC(C)CC3(C)C)nc2C(C)(C)C)CC1` (stereo not shown) [Compound 1461, 5-(4-acetylcyclohexen-1-yl)-N-[(6-amino-2-pyridyl)sulfonyl]-6-tert-butyl-2-(2,2,4-trimethylpyrrolidin-1-yl)pyridine-3-carboxamide], “+++ (“+++” means <3 uM)”. As for `CCOc1cccc2c1CN(Cc1c(C)cc(C)cc1C)C2(C)C(=O)NS(=O)(=O)c1nccs1` (stereo not shown) [Compound 1546, 4-ethoxy-1-methyl-N-thiazol-2-ylsulfonyl-2-[(2,4,6-trimethylphenyl)methyl]isoindoline-1-carboxamide], the entry is “+++ (“+++” means <3 uM)”; as for `CC(C)Oc1ccc(-c2ccc(C(=O)NS(=O)(=O)c3cccc(N)n3)c(N3CC[C@@H](C)C3)n2)cn1` [Compound 1322, N-[(6-amino-2-pyridyl)sulfonyl]-6-(6-isopropoxy-3-pyridyl)-2-[(3R)-3-methylpyrrolidin-1-yl]pyridine-3-carboxamide], “++ (“++” means between 3 uM and 10 uM)”.

The values are drawn from patent US10758534B2 (Vertex Pharmaceuticals Incorporated, priority 2014, dated 2020).
